The test system of assay [1] is HECFCs. Put plainly: flow cytometry ligand-cell binding, HECFCs. Also noted: species or system human. To be noted: biotinylated ligand 1 μM, streptavidin-phycoerythrin. The procedure: FIG. 10 presents flow cytometry data from an assay of binding affinity of LXW7 and GRGD (SEQ ID NO: 1) to different cell types. Tests included EPCs/ECs from different sources, including HECFCs (A), HCAECs (B), HMVECs (C), and THP-1 monocytes (D), Platelets (E), as well as K562 cells engineered to highly express αvβ3 (αvβ3-K562, F), and αIIbβ3 (αIIbβ3-K562, G). Cells were incubated with the LXW7-bio, GRGD-bio (SEQ ID NO: 1), or D-Biotin peptide and subsequently incubated with streptavidin-phycoerythrin. Flow cytometry analysis was performed to determine the binding affinity of the ligands. Samples treated with D-biotin were used as negative controls.
LXW7-bio (1 μM) was incubated with 3×10^5 HECFCs, HCAECs, HMVECs, αvβ3-K562 and αIIbβ3-K562 cells and THP-1 monocytes and 1×10^8 platelets in binding buffer (HEPES containing 10% FBS) on ice for 30 minutes. The samples were washed three times with DPBS containing 1% FBS and incubated with 2 μg/ml of streptavidin-phycoerythrin on ice for 30 minutes and then washed with DPBS. Samples were analyzed on a BD Fortessa LSR Cell Analyzer and further data analysis and gating were performed using FlowJo software (Treestar, Inc.).
For orientation: Flow cytometry measures light scatter and fluorescence of single cells or particles in a stream.

The subject of a further assay is THP-1 monocytes. The assay is described as follows: on-bead whole cell binding assay, THP-1 monocytes. The class given is cell-based. To be noted: 10 minutes, 30 minutes or 2 hours. The source says:
(§1) Human coronary artery endothelial cells (HCAECs) were purchased from ATCC. Human cardiac microvascular endothelial cells (HMVECs) were purchased from Lonza. THP-1 monocytes were obtained from Dr. Pamela Lein (University of California, Davis). The myeloid leukemia K562 cells that have been transfected with human integrin αvβ3 gene (αvβ3-K562 cells) were provided by Dr. Yoshikazu Takada and the K562 cells transfected with human integrin αIIbβ3 gene (αIIb3-K562 cells) were provided Dr. Jennifer Cochran (Stanford University)
(§2) HECFCs, HCAECs, HMVECs and THP-1 monocytes were cultured in their respective growth medium as described in Example 1. For cell bead-binding assay, 6×10^5 HECFCs, HCAECs, HMVECs or THP-1 monocytes in 2 mL of their respective culture medium were added to an ultra-low attachment 35-mm petri dish (Corning Incorporated) followed by resin beads (Lam et al. (1991) Nature 354:82). The dishes were incubated in a shaking incubator at 37° C., 5% CO2 for various time points at 40 rpm. For platelet bead-binding assay, the platelets isolated as described in Example 1 were added to an ultra-low attachment 35-mm petri dish and incubated with the resin beads in the shaking incubator as described for the cell-bead binding assy. Phase contrast images were taken at different time points using an Olympus IX81 microscope. […]

A further assay relates to HMVECs. Put plainly: on-bead whole cell binding assay, HMVECs. The class given is cell-based, human. The following applies: 10 minutes, 30 minutes or 2 hours.
From the text: as §1, §2

In a further assay the test system is VEGFR2 (Tyr1175). The assay is described as follows: Western-blot analysis, phosphorylation of VEGFR2. It is filed as cell-based, human. To be noted: LXW7 treated surface, 96 hours, vs D-biotin. The procedure: The 100-mm dishes from Example 2 were treated with Avidin followed by LXW7-bio or D-biotin as described in Example 5. 8×10^5 HCAECs were seeded per dish and cultured in EGM-2 media for 4 days. Cells were lysed using Extraction Kit (Thermo Fisher Scientific) and protein concentrations were determined using BCA Protein Assay (Thermo Fisher Scientific). Fifteen μg of each sample were loaded and separated using a 4-12% Bis-Tris NuPAGE gel (Thermo Fisher Scientific) and transferred to a nitrocellulose membrane. The membrane was blocked in 5% BSA in TBST (Tris-buffered saline with 0.5% Tween-20), and subsequently incubated with primary antibodies anti-VEGF Receptor 2, anti-Phospho-VEGF Receptor 2, anti-p44/42 MAPK (Erk1/2) and anti-Phospho-p44/42 MAPK (Erk1/2) (Thr202/Tyr204), all purchased from Cell Signaling Technologies, in 1% BSA overnight at 4° C. After washing three times with TBST, the membranes were incubated with respective horseradish peroxidase-conjugated secondary antibodies in 1% non-fat dry milk in TBST (BioRad) for 1 hour at room temperature. After washing, the protein bands were visualized using West Dura Substrate (Thermo Fisher Scientific) and quantified using Image J software.

Assay [2] has as its system HECFCs. Put plainly: on-bead whole cell binding assay, HECFCs. It is filed as cell-based, human. The text has this:
Endothelial colony forming cells (ECFCs), a subtype of EPCs also often referred to as outgrowth endothelial cells (OECs), were isolated from human umbilical cord blood as previously described (Williams et al. (2015) PloS One 10:e0123437; Ingram et al. (2004) Blood 104:2752). Human umbilical cord blood (10 U heparin/mL blood) was obtained from the UC Davis Umbilical Cord Blood Collection Program (UCBCP) and diluted 1:1 with Phosphate-buffered saline (PBS), without calcium and magnesium, pH 7.2 (Hyclone). Fifteen mL Ficoll-Paque PLUS (Amersham Biosciences) was laid at the bottom of 20 mL diluted blood and centrifuged at 2000 rpm for 30 minutes at room temperature. The hazy layer of mononuclear cells (MNCs) that seat at the interface between the Ficoll and serum was collected and dispensed into 50-mL conical tube containing 10 mL EBM-2 (Lonza) and centrifuged at 1500 rpm for 10 minutes at room temperature. The supernatant was carefully aspirated and the pellets were treated with red blood cell lysis buffer (eBioscience, Inc.) and then sorted by CD34 microbead magnetic sorting (Miltenyi Biotec GmbH) as per manufacturer's instructions. The CD34^+ cells were seeded on rat-tail collagen I (BD Biosciences Discovery) coated tissue culture plates and cultured in EGM-2 media (Lonza). After 24 h, non-adherent cells were removed and the media was changed daily to day 7 and every other day thereafter. ECFC-derived colonies appeared between day 4 and day 7 of culture with s typical endothelial cobblestone pattern. Individual colonies were isolated and expanded and allowed to grow to 80% to 90% confluency before first passage. ECFCs were used between P3 and P5 for all experiments.
HECFCs, HCAECs, HMVECs and THP-1 monocytes were cultured in their respective growth medium as described in Example 1. For cell bead-binding assay, 6×10^5 HECFCs, HCAECs, HMVECs or THP-1 monocytes in 2 mL of their respective culture medium were added to an ultra-low attachment 35-mm petri dish (Corning Incorporated) followed by resin beads (Lam et al. (1991) Nature 354:82). […]

In a further assay the test system is HCAECs. Put plainly: on-bead whole cell binding assay, HCAECs. It is filed as cell-based, human.
From the text: as §1
HECFCs, HCAECs, HMVECs and THP-1 monocytes were cultured in their respective growth medium as described in Example 1. For cell bead-binding assay, 6×10^5 HECFCs, HCAECs, HMVECs or THP-1 monocytes in 2 mL of their respective culture medium were added to an ultra-low attachment 35-mm petri dish (Corning Incorporated) followed by resin beads (Lam et al. (1991) Nature 354:82). The dishes were incubated in a shaking incubator at 37° C., 5% CO2 for various time points at 40 rpm. For platelet bead-binding assay, the platelets isolated as described in Example 1 were added to an ultra-low attachment 35-mm petri dish and incubated with the resin beads in the shaking incubator as described for the cell-bead binding assy. Phase contrast images were taken at different time points using an Olympus IX81 microscope.
Three integrin-targeting ligands—LXY30 (α3β1), LLP2A (α4β1) and LXW7 (αvβ3)—were tested for their binding activities to EPCs and ECs. […] LXY30 only bound to ECs, not to EPCs. LLP2A only bound to EPCs, not to ECs. LXW7 bound well to both EPCs and ECs.

Where [3] appears, read: 10 minutes, 30 minutes or 2 hours.

Entries after “also recorded” stand apart in the source; their conditions may differ.

As for cGRGDdvc [LXW7], the “binding affinity to HECFCs by flow cytometry” value in the assay on HECFCs [1] is reported as “higher binding affinity with different types of EPCs/ECs than conventional GRGD peptide”. Besides, the “attachment of THP-1 monocytes to beads displaying LXW7” value with THP-1 monocytes is “did not support effective attachment of THP-1 monocytes”. In addition, the “attachment of HMVECs to beads displaying LXW7” value in the assay on HMVECs was “efficiently supported attachment of EPCs/ECs from different sources; also recorded: efficiently supported EPC/EC attachment”. Further, the “phosphorylation of VEGFR2 (Tyr1175) in ECs” value in the assay on VEGFR2 (Tyr1175) is reported as “significantly increased”. For the same substance, the “attachment of HECFCs to beads displaying LXW7” value in the assay on HECFCs [2] (setting [3]) is given as “efficiently supported attachment of EPCs/ECs from different sources; also recorded: efficiently supported EPC/EC attachment”. Moreover, the “binding of HECFCs to ligand-displaying resin beads” value in the assay on HECFCs [2] (2 hours incubation) was “bound both HECFCs and HCAECs”. Moreover, the “attachment of HCAECs to beads displaying LXW7” value in the assay on HCAECs (setting [3]) is listed as “efficiently supported attachment of EPCs/ECs from different sources; also recorded: efficiently supported EPC/EC attachment”. Besides, the “binding of HCAECs to ligand-displaying resin beads” value with HCAECs (2 hours incubation) was “bound both HECFCs and HCAECs”.

Values taken from patent publication US11246961B2, “Engineered scaffolds for vascularized tissue repair” (The Regents of the University of California, priority 2016, dated 2022).
